Our source for the Growth % values is patent publication US10118901B2 (priority 2013, dated 2018).

Holding throughout (assay type): cell-based, human
The test system of one assay is 786-0. In words: NCI-60 screen at 10 μM: 786-0. Particulars: Renal Cancer 786-0; 10 μM single dose; 48 hrs. The method, then: (§1) NL-101 and CY-102 was sent to U.S. National Cancer Institute (NCI) for NCI 60-cell line screening using a single compound dose (10 μM).
(§2) The human tumor cell lines of the cancer screening panel were grown in RPMI 1640 medium containing 5% fetal bovine serum (5% FBS) and 2 mM L-glutamine. For a typical screening experiment, cells were inoculated into 96-well microtiter plates in 100 μL, at plating densities ranging from 5,000 to 40,000 cells/well depending on the doubling time of individual cell lines. After cell inoculation, the microtiter plates were incubated at 37° C., 5% CO2, 95% air, and 100% relative humidity for 24 h prior to addition of experimental compounds. […]
(§3) Following drug addition, the plates were incubated for an additional 48 hrs at 37° C., 5% CO2, 95% air, and 100% relative humidity. […] Bound stain was subsequently solubilized with 10 mM trizma base, and the absorbance was read on an automated plate reader at a wavelength of 515 nm. […]
(§4) Using the seven absorbance measurements [time zero, (Tz), control growth, (C), and test growth in the presence of drug at the 10 μM concentration levels (Ti)], percentage growth was calculated at each of the drug concentrations levels. Percentage growth inhibition was calculated as: [(Ti−Tz)/(C−Tz)]×100 for which Ti>/=Tz or [(Ti−Tz)/Tz]×100 for which Ti<Tz.

The next assay deals with HOP-92. The experiment in a line: NCI-60 screen at 10 μM: HOP-92. Particulars: NSCLC HOP-92; 10 μM single dose; 48 hrs. The method, then:
as §1, §2, §3, §4

The test system of another assay is NCI/ADR-RES. The experiment in a line: NCI-60 screen at 10 μM: NCI/ADR-RES. Particulars: Ovarian Cancer NCI/ADR-RES; 10 μM single dose; 48 hrs. The method, then:
as §1, §2, §3, §4

The test system of the next assay is RPMI-8226. The experiment in a line: NCI-60 screen at 10 μM: RPMI-8226. Particulars: Leukemia RPMI-8226; 10 μM single dose; 48 hrs. The method, then: as §1, §2, §3, §4
The subject of the next assay is MDA-MB-435. The experiment in a line: NCI-60 screen at 10 μM: MDA-MB-435. Particulars: Melanoma MDA-MB-435; 10 μM single dose; 48 hrs. Here is the method: as §1, §2, §3, §4
For another assay, the system named is MCF7. In words: NCI-60 screen at 10 μM: MCF7. Particulars: Breast Cancer MCF7; 10 μM single dose; 48 hrs. The method, then: as §1, §2, §3, §4
A further assay has as its system HS 578T. The experiment in a line: NCI-60 screen at 10 μM: HS 578T. Particulars: Breast Cancer HS 578T; 10 μM single dose; 48 hrs. The method, then:
as §1, §2, §3, §4

Another assay has as its system UO-31. The experiment in a line: NCI-60 screen at 10 μM: UO-31. Particulars: Renal Cancer UO-31; 10 μM single dose; 48 hrs. Here is the method:
as §1, §2, §3, §4

A further assay concerns NCI-H460. The experiment in a line: NCI-60 screen at 10 μM: NCI-H460. Particulars: NSCLC NCI-H460; 10 μM single dose; 48 hrs. Here is the method: as §1, §2, §3, §4
The subject of another assay is RXF 393. In words: NCI-60 screen at 10 μM: RXF 393. Particulars: Renal Cancer RXF 393; 10 μM single dose; 48 hrs. The method, then:
as §1, §2, §3, §4

A further assay deals with UACC-62. In words: NCI-60 screen at 10 μM: UACC-62. Particulars: Melanoma UACC-62; 10 μM single dose; 48 hrs. Here is the method:
as §1, §2, §3, §4

For another assay, the system named is MDA-MB-231. The experiment in a line: NCI-60 screen at 10 μM: MDA-MB-231. Particulars: Breast Cancer MDA-MB-231; 10 μM single dose; 48 hrs. The method, then:
as §1, §2, §3, §4

A further assay has as its system HOP-62. In words: NCI-60 screen at 10 μM: HOP-62. Particulars: NSCLC HOP-62; 10 μM single dose; 48 hrs. The method, then:
as §1, §2, §3, §4

The subject of a further assay is M14. The experiment in a line: NCI-60 screen at 10 μM: M14. Particulars: Melanoma M14; 10 μM single dose; 48 hrs. The method, then: as §1, §2, §3, §4
A further assay relates to HT29. The experiment in a line: NCI-60 screen at 10 μM: HT29. Particulars: Colon Cancer HT29; 10 μM single dose; 48 hrs. The method, then:
as §1, §2, §3, §4

The next assay relates to UACC-257. The experiment in a line: NCI-60 screen at 10 μM: UACC-257. Particulars: Melanoma UACC-257; 10 μM single dose; 48 hrs. The method, then:
as §1, §2, §3, §4

The test system of another assay is SNB-75. The experiment in a line: NCI-60 screen at 10 μM: SNB-75. Particulars: CNS Cancer (Glioma) SNB-75; 10 μM single dose; 48 hrs. The method, then: as §1, §2, §3, §4
For the next assay, the system named is MOLT-4. In words: NCI-60 screen at 10 μM: MOLT-4. Particulars: Leukemia MOLT-4; 10 μM single dose; 48 hrs. The method, then: as §1, §2, §3, §4
The test system of another assay is SN12C. The experiment in a line: NCI-60 screen at 10 μM: SN12C. Particulars: Renal Cancer SN12C; 10 μM single dose; 48 hrs. Here is the method: as §1, §2, §3, §4
The test system of a further assay is NCI-H226. In words: NCI-60 screen at 10 μM: NCI-H226. Particulars: NSCLC NCI-H226; 10 μM single dose; 48 hrs. The method, then:
as §1, §2, §3, §4

Another assay concerns SK-OV-3. The experiment in a line: NCI-60 screen at 10 μM: SK-OV-3. Particulars: Ovarian Cancer SK-OV-3; 10 μM single dose; 48 hrs. Here is the method:
as §1, §2, §3, §4

The subject of the next assay is SF-295. The experiment in a line: NCI-60 screen at 10 μM: SF-295. Particulars: CNS Cancer (Glioma) SF-295; 10 μM single dose; 48 hrs. The method, then: as §1, §2, §3, §4
The next assay deals with DU-145. In words: NCI-60 screen at 10 μM: DU-145. Particulars: Prostate Cancer DU-145; 10 μM single dose; 48 hrs. The method, then: as §1, §2, §3, §4
For a further assay, the system named is SK-MEL-5. The experiment in a line: NCI-60 screen at 10 μM: SK-MEL-5. Particulars: Melanoma SK-MEL-5; 10 μM single dose; 48 hrs. Here is the method:
as §1, §2, §3, §4

Take `Cn1c(CCNCc2ccc(/C=C/C(=O)NO)cc2)nc2cc(N(CCCl)CCCl)ccc21` [CY-102]: the Growth % is reported as −30.40% in the assay with 786-0; −35.89% in the assay with HOP-92; 17.78% in the assay on NCI/ADR-RES; 2.28% with RPMI-8226; −73.24% with MDA-MB-435; −15.28% with MCF7. The Growth % is listed as 8.17% with HS 578T; −9.19% in the assay on UO-31; 2.61% in the assay with NCI-H460; −35.55% with RXF 393; −69.24% with UACC-62; −35.33% with MDA-MB-231. In addition, the Growth % with HOP-62 is given as −30.02%; with M14, −76.75%; with HT29, −50.67%; with UACC-257, −36.39%; with SNB-75 it was −48.45%; in the assay on MOLT-4 it was 2.17%. Moreover, the Growth % is listed as −1.53% in the assay with SN12C; −20.77% with NCI-H226; −41.53% in the assay with SK-OV-3; −53.87% with SF-295; −16.06% in the assay on DU-145; −79.31% in the assay with SK-MEL-5.
Regarding `Cn1c(CCCCCCC(=O)NO)nc2cc(N(CCCl)CCCl)ccc21` [NL-101], the Growth % in the assay with 786-0 is reported as 19.82%; in the assay on HOP-92, 22.07%; in the assay with NCI/ADR-RES, 77.80%; in the assay with RPMI-8226, 49.23%; in the assay with MDA-MB-435 it was 49.07%; in the assay on MCF7, 37.24%. In addition, the Growth % in the assay on HS 578T is recorded as 24.01%; in the assay with UO-31 it was 63.69%; in the assay with NCI-H460 it was 25.56%; in the assay with RXF 393, 5.95%; with UACC-62 it was 12.99%; in the assay with MDA-MB-231, 72.24%. For the same compound, the Growth % in the assay with HOP-62 is reported as 13.56%; with M14, 39.93%; in the assay on HT29, 37.10%; in the assay with UACC-257, 33.75%; in the assay with SNB-75, 19.79%; in the assay on MOLT-4, 18.01%. In addition, the Growth % was 17.91% in the assay on SN12C; 60.27% in the assay on NCI-H226; 34.40% in the assay on SK-OV-3; 43.95% in the assay with SF-295; 18.47% with DU-145; −6.55% in the assay on SK-MEL-5.
